Results: US20220089646A1 (THE UNIVERSITY OF QUEENSLAND, priority 2019, published 2022)
*1 amine or outer side, *2 acyl side, *3 side chain or, on linkers, in order; H or OH if unused. Where a SMILES comes first, the peptide text is derived from it. Bridges are numbered along the chain shown (N, C = ends). [ ]: non-standard residue; d: D form. NHCH2CMe2S = CC(C)(CN[*:1])S[*:2]

How the values were obtained:
KOP = KOP (Homo sapiens, UniProt P41145); assay: Statistics for each peptide | IC50 (nM)
Description: Table printed on a drawing sheet, FIG 12
Head of the field: Statistics for each peptide | IC50 (nM)
First copying reader's note: The table stands under a forest plot whose axis is labelled 'Mean IC50 ± 95% CI (nM)'; according to the description the IC50 values were measured in HEK-KOP cells.

Stability in cAMP buffer = format: physicochemical; settings: over 60 minutes
Excerpt: Select compounds were also screened for stability in cAMP buffer, to assess whether they degrade spontaneously in the cell assay environment, in the absence of cellular metabolic processes.

[1] = target: T1, bovine pancreatic trypsin (Bos taurus, UniProt P00760); assay: Trypsin stability assay (Table 10); format: in vitro ADME; settings: bovine pancreatic trypsin solution; bovine pancreatic trypsin 2.5 μg/mL, 37° C., One Phase Decay; read-out: Stability (t1/2, mins) Trypsin
T1 construct: from tissue; host or cells: bovine pancreas
T1 sequence (P00760 24-246): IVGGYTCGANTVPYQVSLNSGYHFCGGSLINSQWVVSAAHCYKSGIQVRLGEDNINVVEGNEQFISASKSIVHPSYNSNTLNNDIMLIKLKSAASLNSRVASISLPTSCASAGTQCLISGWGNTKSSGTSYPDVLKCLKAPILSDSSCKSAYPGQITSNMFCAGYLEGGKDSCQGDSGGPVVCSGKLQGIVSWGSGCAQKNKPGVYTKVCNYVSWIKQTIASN
Excerpt: FIG. 20 is a series of graphs showing the stability of selected peptides in a trypsin (left-hand graphs) and plasma (right-hand graphs) stability assay (data normalised to concentration of each peptide at t=0, determined by LCMS, within each substrate; data analysed using One Phase Decay nonlinear regression in Prism software and each experiment performed in triplicate; mean+/−SEM);
Plasma was collected in house from adult mixed-gender Wistar rats, prepared using 2% EDTA as per standard practice. Peptides were added to rat plasma samples at 37° C. (in a water bath) with final concentrations of 100 uM (1:9 peptide in water:plasma) and a 50 μL sample was immediately taken and precipitated in 150 μL cold acetonitrile (9:1 ACN:water). This sample became the baseline, or t=0 min sample. […] At each time point, the 50 μL of plasma collected was immediately added to cold ACN. Each collected plasma sample in ACN was directly vortexed for 30 seconds and then centrifuged at room temperature (13K rpm, 5 min). 150 μL of the supernatant was taken and directly placed in glass HPLC vials for LCMS analysis.
The protocol for the trypsin stability assay was very similar to the plasma stability assay discussed above. The only difference was the use of a trypsin solution (bovine pancreatic trypsin 2.5 μg/mL in NH4HCO3 buffer, pH approx. 8-8.5, 37° C.) instead of rat plasma. Volumes, times and preparation protocols were exactly as mentioned above.

Chain of KOP (P41145 whole entry, looked up): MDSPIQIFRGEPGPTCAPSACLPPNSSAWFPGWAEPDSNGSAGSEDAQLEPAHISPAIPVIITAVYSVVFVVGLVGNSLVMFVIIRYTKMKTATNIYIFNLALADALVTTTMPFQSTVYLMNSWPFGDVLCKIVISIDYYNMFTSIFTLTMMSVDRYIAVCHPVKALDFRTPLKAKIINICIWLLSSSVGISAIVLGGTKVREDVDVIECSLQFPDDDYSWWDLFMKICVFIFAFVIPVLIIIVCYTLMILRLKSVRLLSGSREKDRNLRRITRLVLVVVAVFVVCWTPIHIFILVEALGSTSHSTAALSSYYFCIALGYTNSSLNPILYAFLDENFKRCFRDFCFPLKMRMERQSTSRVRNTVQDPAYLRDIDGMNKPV

With `CC1(C)CNC(=O)C[C@@H](NC(=O)[C@@H](N)Cc2ccc(O)cc2)C(=O)NCC(=O)N[C@@H](Cc2ccccc2)C(=O)N[C@H](C(=O)N[C@@H](CCCNC(=N)N)C(=O)N[C@@H](CCCNC(=N)N)C(N)=O)CSS1` [DP-7-12, c(Tyr-D(Asp)-Gly-Phe-SSa-Arg-Arg)] (H-Y[dD]GFCRR-NH2; linker 2-5 via NHCH2CMe2S) the IC50 (KOP) was 4.49 ± 1.59 nM, the “Degradation in cAMP assay buffer” value (Stability in cAMP buffer) was “no degradation” and the half-life [1] was under 0.01 min.
